We go through 31 molecules from patent US9776995B2, “Bicyclic sulfonamide compounds as sodium channel inhibitors” (AMGEN INC., priority 2013, dated 2017).

By IC50 is commonly meant the midpoint of a concentration-inhibition curve.

Where two headings read alike, the source gives them in different places.

Data set [1] has as its target T1, Nav 1.7 (Homo sapiens (Human), UniProt Q15858). Description: in-vitro Nav 1.7 PX data. Type of data set: cell-based.
Data set [2] concerns the target Nav 1.5 (Homo sapiens (Human), UniProt Q14524). In words: in-vitro Nav 1.5 PX data. The settings on record: read-out: Nav 1.5 PX IC50.
The target of data set [3] is T1, Nav 1.7. Description: Nav 1.7 in vitro PX assay (PatchXpress whole cell voltage clamp).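 Further: holding potential set for 20 to 50% inactivation, sodium current evoked by a 20 ms step to −10 mV, peak current inhibition read after compound exposure, 3–5 cells per concentration.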 Type of data set: cell-based. The settings on record: HEK 293 cells stably transfected with human Nav1.7; PatchXpress; partially inactivated state.

Chain of Nav 1.5 (Q14524 whole entry): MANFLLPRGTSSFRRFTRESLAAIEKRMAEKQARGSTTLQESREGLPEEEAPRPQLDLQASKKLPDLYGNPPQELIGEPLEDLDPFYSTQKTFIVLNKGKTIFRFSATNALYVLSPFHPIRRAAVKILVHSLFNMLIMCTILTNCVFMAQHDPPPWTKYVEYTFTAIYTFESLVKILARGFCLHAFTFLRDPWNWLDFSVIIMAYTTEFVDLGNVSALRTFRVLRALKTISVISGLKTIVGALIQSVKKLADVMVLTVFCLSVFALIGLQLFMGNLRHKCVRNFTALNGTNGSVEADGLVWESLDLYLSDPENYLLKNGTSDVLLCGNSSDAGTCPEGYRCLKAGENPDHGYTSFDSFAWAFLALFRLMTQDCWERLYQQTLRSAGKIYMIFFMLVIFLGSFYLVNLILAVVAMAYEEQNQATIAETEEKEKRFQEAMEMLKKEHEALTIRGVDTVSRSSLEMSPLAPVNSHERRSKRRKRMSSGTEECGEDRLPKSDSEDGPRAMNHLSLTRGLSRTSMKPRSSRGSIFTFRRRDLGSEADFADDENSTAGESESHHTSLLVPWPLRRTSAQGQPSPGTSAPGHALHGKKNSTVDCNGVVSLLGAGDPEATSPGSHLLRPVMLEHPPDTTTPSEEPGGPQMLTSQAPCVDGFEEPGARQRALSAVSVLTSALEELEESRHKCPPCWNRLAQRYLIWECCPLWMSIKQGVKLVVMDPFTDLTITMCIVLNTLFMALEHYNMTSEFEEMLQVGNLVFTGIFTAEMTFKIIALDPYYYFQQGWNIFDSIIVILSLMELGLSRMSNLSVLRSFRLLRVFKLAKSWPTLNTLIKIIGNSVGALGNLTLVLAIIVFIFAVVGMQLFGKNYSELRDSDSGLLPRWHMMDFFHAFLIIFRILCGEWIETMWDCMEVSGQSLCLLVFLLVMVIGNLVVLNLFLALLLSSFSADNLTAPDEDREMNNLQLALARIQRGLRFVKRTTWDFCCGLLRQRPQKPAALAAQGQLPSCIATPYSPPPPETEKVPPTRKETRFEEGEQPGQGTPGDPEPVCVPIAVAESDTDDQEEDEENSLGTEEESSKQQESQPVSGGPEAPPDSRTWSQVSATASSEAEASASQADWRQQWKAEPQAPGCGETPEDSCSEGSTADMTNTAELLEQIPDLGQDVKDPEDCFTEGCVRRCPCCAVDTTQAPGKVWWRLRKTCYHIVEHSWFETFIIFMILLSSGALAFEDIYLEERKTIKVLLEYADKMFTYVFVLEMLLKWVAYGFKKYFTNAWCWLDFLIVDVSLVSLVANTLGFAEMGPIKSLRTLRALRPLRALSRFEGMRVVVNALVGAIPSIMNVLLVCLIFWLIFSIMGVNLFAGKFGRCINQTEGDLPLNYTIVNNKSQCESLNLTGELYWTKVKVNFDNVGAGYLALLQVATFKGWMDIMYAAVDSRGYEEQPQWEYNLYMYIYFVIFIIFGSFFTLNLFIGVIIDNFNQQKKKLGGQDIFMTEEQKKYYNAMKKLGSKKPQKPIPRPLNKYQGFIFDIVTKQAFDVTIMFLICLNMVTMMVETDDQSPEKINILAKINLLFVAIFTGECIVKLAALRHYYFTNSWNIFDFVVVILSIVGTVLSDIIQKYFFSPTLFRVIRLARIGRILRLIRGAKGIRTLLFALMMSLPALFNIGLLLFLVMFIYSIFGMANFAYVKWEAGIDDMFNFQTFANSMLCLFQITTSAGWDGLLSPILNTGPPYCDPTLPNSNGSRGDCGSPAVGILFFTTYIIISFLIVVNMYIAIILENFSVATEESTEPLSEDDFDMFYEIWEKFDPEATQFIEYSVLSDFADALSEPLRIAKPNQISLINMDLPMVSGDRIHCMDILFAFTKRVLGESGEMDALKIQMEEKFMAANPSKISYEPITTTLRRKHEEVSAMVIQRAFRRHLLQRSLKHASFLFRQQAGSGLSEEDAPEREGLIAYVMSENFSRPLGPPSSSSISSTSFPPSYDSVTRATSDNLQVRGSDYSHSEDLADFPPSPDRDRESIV
T1 sequence (Q15858 whole entry): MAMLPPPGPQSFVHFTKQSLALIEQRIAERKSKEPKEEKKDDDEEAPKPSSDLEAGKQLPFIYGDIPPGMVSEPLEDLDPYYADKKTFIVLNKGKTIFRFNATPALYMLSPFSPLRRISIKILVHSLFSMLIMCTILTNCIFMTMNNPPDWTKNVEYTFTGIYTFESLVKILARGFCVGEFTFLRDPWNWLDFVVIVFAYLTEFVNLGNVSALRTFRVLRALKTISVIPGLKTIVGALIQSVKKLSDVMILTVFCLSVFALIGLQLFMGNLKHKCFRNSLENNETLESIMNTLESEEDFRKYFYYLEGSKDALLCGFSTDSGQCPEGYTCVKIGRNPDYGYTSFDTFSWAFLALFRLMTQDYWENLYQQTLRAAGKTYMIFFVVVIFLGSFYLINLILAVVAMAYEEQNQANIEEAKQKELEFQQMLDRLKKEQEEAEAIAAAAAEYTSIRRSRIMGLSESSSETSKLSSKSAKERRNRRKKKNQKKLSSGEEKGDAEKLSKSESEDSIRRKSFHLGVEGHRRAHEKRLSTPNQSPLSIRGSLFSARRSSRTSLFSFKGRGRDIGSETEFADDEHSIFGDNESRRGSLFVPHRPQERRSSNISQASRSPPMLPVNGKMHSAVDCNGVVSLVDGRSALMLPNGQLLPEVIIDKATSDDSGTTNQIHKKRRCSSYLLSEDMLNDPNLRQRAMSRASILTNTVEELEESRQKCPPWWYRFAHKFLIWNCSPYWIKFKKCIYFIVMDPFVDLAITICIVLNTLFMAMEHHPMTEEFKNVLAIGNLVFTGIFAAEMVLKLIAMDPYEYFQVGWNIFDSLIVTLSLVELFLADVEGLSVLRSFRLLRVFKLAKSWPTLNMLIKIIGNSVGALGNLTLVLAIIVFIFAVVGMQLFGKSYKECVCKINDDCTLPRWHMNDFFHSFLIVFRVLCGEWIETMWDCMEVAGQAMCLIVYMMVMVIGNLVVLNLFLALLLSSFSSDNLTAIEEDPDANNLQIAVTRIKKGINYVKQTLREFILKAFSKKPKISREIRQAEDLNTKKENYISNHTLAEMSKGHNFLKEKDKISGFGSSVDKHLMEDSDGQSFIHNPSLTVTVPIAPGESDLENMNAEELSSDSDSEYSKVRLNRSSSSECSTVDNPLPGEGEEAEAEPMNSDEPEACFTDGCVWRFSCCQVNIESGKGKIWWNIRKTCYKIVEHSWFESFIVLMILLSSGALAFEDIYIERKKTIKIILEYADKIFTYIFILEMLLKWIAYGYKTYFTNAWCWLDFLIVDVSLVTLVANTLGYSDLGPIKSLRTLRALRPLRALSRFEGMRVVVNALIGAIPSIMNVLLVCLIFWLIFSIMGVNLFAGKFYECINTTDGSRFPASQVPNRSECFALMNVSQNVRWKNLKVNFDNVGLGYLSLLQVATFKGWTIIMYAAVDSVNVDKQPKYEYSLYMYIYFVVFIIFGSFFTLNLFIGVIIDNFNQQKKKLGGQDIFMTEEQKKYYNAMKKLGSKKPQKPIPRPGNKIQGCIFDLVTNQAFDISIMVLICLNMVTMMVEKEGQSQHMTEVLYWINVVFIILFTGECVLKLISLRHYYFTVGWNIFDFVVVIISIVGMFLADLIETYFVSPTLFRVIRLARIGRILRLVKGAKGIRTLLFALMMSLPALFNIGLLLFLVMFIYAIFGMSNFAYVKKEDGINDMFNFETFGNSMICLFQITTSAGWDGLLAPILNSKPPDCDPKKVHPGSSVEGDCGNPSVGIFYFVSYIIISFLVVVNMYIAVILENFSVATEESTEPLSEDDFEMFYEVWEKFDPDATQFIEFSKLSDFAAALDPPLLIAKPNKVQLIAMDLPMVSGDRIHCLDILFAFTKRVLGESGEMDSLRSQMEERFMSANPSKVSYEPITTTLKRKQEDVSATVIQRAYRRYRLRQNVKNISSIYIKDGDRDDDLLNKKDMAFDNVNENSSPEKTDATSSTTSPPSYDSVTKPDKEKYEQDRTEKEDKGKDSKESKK

“1-(2-chloro-3′-fluoro-5-methoxy-4-biphenylyl)-N-2-pyrimidinyl-6-isoquinolinesulfonamide [Example 108]”: the values for the IC50 in data set [1] (in-vitro PX data) and in data set [2] (in-vitro PX data) were 86.2 nM and over 10000 nM, respectively.
For the molecule “1-(2-cyano-5-methoxy-2′-methyl-4-biphenylyl)-N-1,3,4-thiadiazol-2-yl-6-isoquinolinesulfonamide [Example 220]”, the half-inhibitory concentration (IC50) in data set [1] (in-vitro PX) is 40.1 nM; in data set [2] (in-vitro PX), over 10000 nM.
The matching figures for “1-(3′-chloro-2-cyano-5-methoxy-5′-methyl-4-biphenylyl)-N-1,3,4-thiadiazol-2-yl-6-isoquinolinesulfonamide [Example 225]”: 11.1 nM and over 10000 nM.
For “1-(5-cyano-4-(5-fluoro-2-methoxy-3-pyridinyl)-2-methoxyphenyl)-N-1,3,4-thiadiazol-2-yl-6-isoquinolinesulfonamide [Example 223]”, in that order: 72.3 nM and over 10000 nM.
With `COc1cc(-c2cccc(C(F)(F)F)c2)c(C#N)cc1-c1nccc2cc(S(=O)(=O)Nc3ccon3)ccc12` [Example 1, 1-(2-CYANO-5-METHOXY-3′-(TRIFLUOROMETHYL)-[1,1′-BIPHENYL]-4-YL)-N-(ISOXAZOL-3-YL)ISOQUINOLINE-6-SULFONAMIDE], the results for the IC50 in data set [1] (in-vitro Nav 1.7 PX data) and in data set [2] (in-vitro Nav 1.5 PX data) were 54.7 nM and over 10000 nM, respectively.
As for `COc1cc(-c2cc(F)cc(F)c2)ccc1-c1nccc2cc(S(=O)(=O)Nc3ccsn3)ccc12` [Example 5, 1-(3′,5′-DIFLUORO-3-METHOXY-[1,1′-BIPHENYL]-4-YL)-N-(ISOTHIAZOL-3-YL)ISOQUINOLINE-6-SULFONAMIDE 2,2,2-TRIFLUOROACETATE], the half-maximal inhibitory concentration (IC50) in data set [1] was 337 nM; in data set [2] (in-vitro PX data), over 10000 nM.
The matching figures for `COc1cc(-c2cccc(C(F)(F)F)c2)ccc1-c1nccc2cc(S(=O)(=O)Nc3ccon3)ccc12` [Example 6, N-(ISOXAZOL-3-YL)-1-(3-METHOXY-3′-(TRIFLUOROMETHYL)-[1,1′-BIPHENYL]-4-YL)ISOQUINOLINE-6-SULFONAMIDE]: 78.9 nM and over 10000 nM.
As to `COc1cc(-c2cccc(F)c2)c(Cl)cc1-c1nccc2cc(S(=O)(=O)Nc3ncon3)ccc12` [Example 7, 1-(2-CHLORO-3′-FLUORO-5-METHOXY-[1,1′-BIPHENYL]-4-YL)-N-(1,2,4-OXADIAZOL-3-YL)ISOQUINOLINE-6-SULFONAMIDE 2,2,2-TRIFLUOROACETATE], the concentration for half-maximal inhibition (IC50) in data set [1] was 47.7 nM; in data set [2] (in-vitro PX data), over 10000 nM.
On to `COc1cc(-c2cccc(F)c2)c(Cl)cc1-c1nncc2cc(S(=O)(=O)Nc3nncs3)ccc12` [Example 9, 1-(2-CHLORO-3′-FLUORO-5-METHOXY-[1,1′-BIPHENYL]-4-YL)-N-(1,3,4-THIADIAZOL-2-YL)PHTHALAZINE-6-SULFONAMIDE], for which the values for the IC50 in data set [1] (in-vitro PX data) and in data set [2] (in-vitro PX data) were 112 nM and over 10000 nM, respectively.
For `COc1cc(-c2cccc(F)c2)c(Cl)cc1-c1nncc2cc(S(=O)(=O)Nc3ccon3)ccc12` [Example 10, 1-(2-CHLORO-3′-FLUORO-5-METHOXY-[1,1′-BIPHENYL]-4-YL)-N-(ISOXAZOL-3-YL)PHTHALAZINE-6-SULFONAMIDE], in that order: 84.1 nM and over 10000 nM.
For `COc1cc(-c2cccc(F)c2)c(Cl)cc1-c1n[nH]c(=O)c2cc(S(=O)(=O)Nc3nncs3)ccc12` [Example 14, 1-(2-CHLORO-3′-FLUORO-5-METHOXY-[1,1′-BIPHENYL]-4-YL)-4-OXO-N-(1,3,4-THIADIAZOL-2-YL)-3,4-DIHYDROPHTHALAZINE-6-SULFONAMIDE], the figures for the IC50 in data set [1] and in data set [2] (in-vitro PX (PatchXpress) data) were 131 nM and over 10000 nM, respectively.
In the case of `COc1cc(-c2cccc(F)c2)c(Cl)cc1-c1ncc(O)c2cc(S(=O)(=O)Nc3ccon3)ccc12` [Example 17, 1-(2-CHLORO-3′-FLUORO-5-METHOXY-[1,1′-BIPHENYL]-4-YL)-4-HYDROXY-N-(ISOXAZOL-3-YL)ISOQUINOLINE-6-SULFONAMIDE], the 50% inhibitory concentration (IC50) in data set [1] (in-vitro PX) is 85.1 nM; in data set [2] (in-vitro PX), over 10000 nM.
As to `COc1cc(-c2cc(F)cnc2OC)c(C#N)cc1-c1ncnc2cc(S(=O)(=O)Nc3nncs3)ccc12` [Example 20, 4-(5-CYANO-4-(5-FLUORO-2-METHOXYPYRIDIN-3-YL)-2-METHOXYPHENYL)-N-(1,3,4-THIADIAZOL-2-YL)QUINAZOLINE-7-SULFONAMIDE], the 50% inhibitory concentration (IC50) in data set [1] is 182 nM; in data set [2] (in-vitro PX (PatchXpress) data), over 10000 nM.
Take `COc1cc(-c2cccc(F)c2)c(Cl)cc1-c1nn(C)c(=O)c2cc(S(=O)(=O)Nc3ccon3)ccc12` [Example 21, 1-(2-CHLORO-3′-FLUORO-5-METHOXY-[1,1′-BIPHENYL]-4-YL)-N-(ISOXAZOL-3-YL)-3-METHYL-4-OXO-3,4-DIHYDROPHTHALAZINE-6-SULFONAMIDE]: the IC50 was 42.4 nM in data set [1] and over 10000 nM in data set [2] (in-vitro PX).
`COc1cc(-c2ccc(F)c(C)n2)c(C)cc1-c1ncnc2cc(S(=O)(=O)Nc3ccon3)ccc12` [Example 33]: the half-maximal inhibitory concentration (IC50) in data set [2] (in-vitro PX (PatchXpress) data) was over 10000 nM.
For the molecule `COc1cc(-c2ccc(C)c(F)c2)c(C#N)cc1-c1nccc2cc(S(=O)(=O)Nc3ccon3)ccc12` [Example 81, 1-(2-cyano-3′-fluoro-5-methoxy-4′-methyl-4-biphenylyl)-N-3-isoxazolyl-6-isoquinolinesulfonamide], the IC50 in data set [2] (PatchXpress (PX), in vitro) is over 10000 nM.
For `COc1cc(-c2cc(F)cnc2OC)c(C#N)cc1-c1nccc2cc(S(=O)(=O)Nc3ccon3)ccc12` [Example 83, 1-(5-cyano-4-(5-fluoro-2-methoxy-3-pyridinyl)-2-methoxyphenyl)-N-3-isoxazolyl-6-isoquinolinesulfonamide], the IC50 in data set [2] (PatchXpress (PX), in vitro) was over 10000 nM.
As to `COc1cc(-c2cccc(Cl)c2)c(F)cc1-c1nccc2cc(S(=O)(=O)Nc3ccon3)ccc12` [Example 116, 1-(3′-chloro-2-fluoro-5-methoxy-4-biphenylyl)-N-3-isoxazolyl-6-isoquinolinesulfonamide], the IC50 in data set [2] (in-vitro PX data) was over 10000 nM.
With `COc1cc(-c2cc(C)cc(F)c2)c(C#N)cc1-c1nccc2cc(S(=O)(=O)Nc3ccncn3)ccc12` [Example 164, 1-(2-cyano-3′-fluoro-5-methoxy-5′-methyl-4-biphenylyl)-N-4-pyrimidinyl-6-isoquinolinesulfonamide], the half-maximal inhibitory concentration (IC50) in data set [2] (in-vitro Nav 1.5 PX data) was over 30000 nM.
On the same count and under the same terms, under `COc1cc(-c2cc(C)c(C)cc2C)c(C#N)cc1-c1nccc2cc(S(=O)(=O)Nc3ccncn3)ccc12` [Example 165, 1-(2-cyano-5-methoxy-2′,4′,5′-trimethyl-4-biphenylyl)-N-4-pyrimidinyl-6-isoquinolinesulfonamide] stands over 30000 nM.
Turning to `COc1ccc(F)cc1-c1cc(OC)c(-c2ncnc3cc(S(=O)(=O)Nc4ccon4)ccc23)cc1C` [Example 191, 4-(5′-fluoro-2′,5-dimethoxy-2-methyl-4-biphenylyl)-N-3-isoxazolyl-7-quinazolinesulfonamide], the half-maximal inhibitory concentration (IC50) in data set [2] (in-vitro PX (PatchXpress) data) is over 10000 nM.
With `COc1cc(-c2ccc(F)c(Cl)c2)c(C#N)cc1-c1nccc2cc(S(=O)(=O)Nc3nncs3)ccc12` [Example 221, 1-(3′-chloro-2-cyano-4′-fluoro-5-methoxy-4-biphenylyl)-N-1,3,4-thiadiazol-2-yl-6-isoquinolinesulfonamide], the IC50 in data set [2] (in-vitro PX) was over 10000 nM.
On the same count and under the same terms, the figure for `COc1cc(-c2ccc(Cl)c(F)c2)c(C#N)cc1-c1nccc2cc(S(=O)(=O)Nc3nncs3)ccc12` [Example 224, 1-(4′-chloro-2-cyano-3′-fluoro-5-methoxy-4-biphenylyl)-N-1,3,4-thiadiazol-2-yl-6-isoquinolinesulfonamide] is over 10000 nM; for `COc1cc(-c2cccc(F)c2)c(Cl)cc1-c1ncnc2cc(S(=O)(=O)Nc3ccon3)ccc12` [Example 227, 4-(2-chloro-3′-fluoro-5-methoxy-4-biphenylyl)-N-3-isoxazolyl-7-quinazolinesulfonamide] it is over 10000 nM; for `COc1cc(-c2ccc(Cl)c(C)c2)c(C#N)cc1-c1nccc2cc(S(=O)(=O)Nc3nncs3)ccc12` [Example 228, 1-(4′-chloro-2-cyano-5-methoxy-3′-methyl-4-biphenylyl)-N-1,3,4-thiadiazol-2-yl-6-isoquinolinesulfonamide] it is over 10000 nM.
Same read-out and setting: the figure for `COc1cc(-c2cccc(C(F)(F)F)c2)c(F)cc1-c1nn(C)c(=O)c2cc(S(=O)(=O)Nc3nncs3)ccc12` [Example 234, 1-(2-fluoro-5-methoxy-3′-(trifluoromethyl)-4-biphenylyl)-3-methyl-4-oxo-N-1,3,4-thiadiazol-2-yl-3,4-dihydro-6-phthalazinesulfonamide] is over 10000 nM.
`COc1cc(-c2ccc(F)cc2F)c(C)cc1-c1ncnc2cc(S(=O)(=O)Nc3ccon3)ccc12` [Example 563, 4-(2′,4′-difluoro-5-methoxy-2-methyl-4-biphenylyl)-N-3-isoxazolyl-7-quinazolinesulfonamide] yielded an IC50 in data set [3] of 105 nM.
Molecule `COc1cc(-c2cc(F)ccc2F)c(C)cc1-c1ncnc2cc(S(=O)(=O)Nc3ccon3)ccc12` [Example 564, 4-(2′,5′-difluoro-5-methoxy-2-methyl-4-biphenylyl)-N-3-isoxazolyl-7-quinazolinesulfonamide] displayed an IC50 in data set [3] of 94 nM.
Same read-out and setting: the figure for `COc1cc(-c2c(F)cccc2F)c(C)cc1-c1ncnc2cc(S(=O)(=O)Nc3ccon3)ccc12` [Example 565, 4-(2′,6′-difluoro-5-methoxy-2-methyl-4-biphenylyl)-N-3-isoxazolyl-7-quinazolinesulfonamide] is 199 nM; for `COc1cc(-c2ccc3c(c2)CCC3)c(C)cc1-c1ncnc2cc(S(=O)(=O)Nc3ccon3)ccc12` [Example 566, 4-(4-(2,3-dihydro-1H-inden-5-yl)-2-methoxy-5-methylphenyl)-N-3-isoxazolyl-7-quinazolinesulfonamide] it is 169 nM.
`COc1cc(-c2cccc(F)c2)ccc1-c1c(=O)n(C)cc2cc(S(=O)(=O)Nc3ccon3)ccc12` [Example 589, 4-(3′-fluoro-3-methoxy-4-biphenylyl)-N-3-isoxazolyl-2-methyl-3-oxo-2,3-dihydro-7-isoquinolinesulfonamide]: the half-maximal inhibitory concentration (IC50) in data set [3] came out at 533 nM.
